According to PMC4660440 (Scientific Reports, 2015):
Read-outs that look alike come from different tables or passages of the source.

Experiments:
[1] = system: BimEL, ATR, caspase 3, caspase 8, caspase 9, PARP in HeLa cells; assay: Western blot analysis of apoptosis proteins; assay type: cell-based; details: 24 h treatment
Procedure: For electrophoresis, the proteins were separated by sodium dodecyl sulfate–polyacrylamide gel electro-phoresis (SDS–PAGE). The proteins were then transferred to a nitrocellulose membrane, which was blocked with 5% skimmed milk in phosphate buffered saline Tween-20 (PBST). A specific primary antibody was added to bind the target proteins for either 1 h at room temperature or overnight at 4 °C. A horseradish peroxidase (HRP) conjugated secondary antibody was added to the membrane after the primary antibody was washed off. All signals were detected after the HRP was activated by enhanced chemiluminescence. The band intensities of Western results were quantitated with the Image Quant program (Molecular Dynamics Inc.), analyzed and graphed. The untreated controls and the etoposideinduced activation of signaling molecules were taken as 0% and 100%, respectively. Statistic analysis was performed with the uni-polar, paired Student t-test. Data were considered significant when P value was less than 0.05.

A549 = assay: MTT cytotoxicity assay, A549; assay type: cell-based; details: mean ± SD (n = 3), read-out: Cytotoxic activity (IC50) A549
Procedure: (§1) HeLa, BGC823, A-549, MCF-7 and HT-7702 cell lines were obtained from the ATCC. […] Tumor cells (3500–13,000) were seeded into 96-well microtest plates in 100 μL of culture medium per well, incubated for 48 h in the presence or absence of test compounds (8 different concentrations ranging from 100 to 0.01 μg/mL). For quantitative estimation of cytotoxicity, the (MTT) method was used, essentially performed as described previously. Briefly, cells were washed twice with PBS, fixed for 15 min in 1% glutaraldehyde solution, rinsed twice in PBS, and stained in 0.5% MTT solution for 4 h at 37 °C. […] The initial seeding densities varied among the cell lines to ensure a final absorbance reading in control (untreated) cultures within the range of 0.6–0.8 A492 units. Drug exposure was carried out for 2 days, and the IC50 value, i.e., the drug concentration that decreased the absorbance by 50%, was extrapolated from dose-response data. Each test was performed in triplicate, and the absorbance readings between the triplicates varied by no more than 10%.

[2] = MTT cytotoxicity assay, normal hepatic cell line HL-7702; assay type: cell-based; details: HL-7702 normal hepatic cells, human normal hepatic immortal cell line, drug exposure 48 h, mean ± SD (n = 3), read-out: Cytotoxic activity (IC50) HL-7702
Procedure: as §1

BGC-823 = assay: MTT cytotoxicity assay, BGC-823; assay type: cell-based; details: mean ± SD (n = 3), read-out: Cytotoxic activity (IC50) BGC-823
Procedure: as §1

[3] = system: microtubules in HeLa cells; assay: Immunofluorescence of cellular microtubules; assay type: cell-based; details: for Cellular depolymerization of microtubules: 12 and 24 h, compared with negative control 0.1% DMSO; for Appearance of microtubules after treatment: immunofluorescence
Procedure: Cells (20000 per mL) were plated a onto 6-well tissue culture plates containing 12 mm round coverslips, cultured overnight, and then treated with different drugs at […] concentrations or drug vehicle (0.1% DMSO) for 12 h and 24 h. Attached cells were permeabilized. Cytoskeletons were incubated with α-tubulin, washed twice, and incubated with FITC goat anti-mouse immunoglobulins. The coverslips were washed, and 1 μg/mL DAPI to stain chromatin was added. The mixture was incubated for 30 min. After the samples were washed, they were examined and photographed using an Olympus epifluorescence microscope. The images were recorded with a Perkin Elmer camera.

HeLa cells [4] = assay: Cell cycle analysis by flow cytometry (PI); assay type: cell-based; details: for Effect on HeLa cell cycle: 0.1, 1.0, 5.0 μM, 6, 12, 24, 48 h; for Ratio of cell cycle arrest (of total cells): 0.1 μM, 6, 12, 24 and 48 h; for Total cell cycle arrest percentage (right peak of histogram): 48 h
Procedure: The HeLa cell line was used for cell cycle analysis. Progression through the cell cycle was assessed by flow cytometry DNA determination with Propidium Iodide (PI). […] Flow cytometric analysis was performed using a BD accur C6 flow cytometer. Analysis was with Mod FIT software.

MCF-7 = assay: MTT cytotoxicity assay, MCF-7; assay type: cell-based; details: mean ± SD (n = 3), read-out: Cytotoxic activity (IC50) MCF-7
Procedure: as §1

tubulin = assay: Tubulin assembly centrifugation assay in vitro; assay type: biochemical; details: for Inhibition of microtubule polymerization compared with colchicine: colchicine as positive control
Procedure: Ligands were dissolved in DMSO at 20 mM and kept at −80 °C. Work solutions were done in DMSO and kept at −20 °C. The 50% inhibitory ligand concentration of tubulin assembly was determined with a centrifugation assay. Tubulin was equilibrated prior to use in 3.4 M glycerol, 1 mM EGTA, 0.1 mM GTP, pH 7.0, buffer through a 25 cm × 0.9 cm Sephadex G-25 column. Aggregates were removed by a centrifugation at 90000 g × 10 min in a TLA 120 rotor at 4 °C in an Optima TLX centrifuge. Tubulin concentration was determined as described by Andreu^42. Tubulin was kept at 4 °C, and 0.9 mM GTP and 6 mM MgCl2 were added to the sample. The solution was distributed in 200 μL polycarbonate tubes for the TL100 rotor. Growing concentrations of the ligands ranging from 0 to 25 μM were added to the samples (DMSO content of the samples, 2.5%), which were incubated for 30 min at 37 °C. Microtubules were separated from unassembled tubulin by a centrifugation at 90000 g × 10 min in a TLA100 rotor at 37 °C in an Optima TLX centrifuge. The supernatant containing unassembled tubulin was carefully collected and the microtubule pellet resuspended in 10 mM sodium phosphate buffer, pH 7.0, containing 1% SDS. Both supernatants and pellets were diluted 1:5 in the same buffer, and tubulin concentrations were measured fluorometrically (λexc = 280; λems = 323) using tubulin standards calibrated spectrophotometrically. The 50% inhibitory ligand concentration of tubulin assembly was determined with a centrifugation assay that measured the decrease in the concentrations of microtubules assembled in the presence of different concentrations of the compound.

HeLa cells [5] = assay: Annexin V-FITC/PI apoptosis assay; details: 0.1 μM, 6, 12, 24 and 48 h
Procedure: The HeLa cell line was used for cell apoptosis. Cells (20000 per mL) were incubated with several concentrations of the compounds or drugs for 6–48 h, and incubated in DMEM medium supplemented with 12% fetal calf serum (FCS), 2 mM L -glutamine, and 100 mg/L penicillin G and 100 mg/L streptomycin at 37 °C and 5% CO2. The cells were washed with PBS twice, centrifuged at 206 g for 5 min, and 5–10[5] cells were collected. Binding buffer suspension (500 μL) was added to the cells, and then 5 μL of the FITC-Annexin V mix was added. Next, 10 μL of the PI mix was added, and the suspension was mixed and kept at room temperature for 30 min in the dark. Analysis was with a BD accur C6 flow cytometer.

topoisomerase II = assay: kDNA decatenation assay; assay type: biochemical; details: 100 μM
Procedure: The decatenation of kDNA was assayed according to TopoGen protocol in order to determine topoisomerase II activity. The substrate kDNA (200 ng) and 100 μM drugs were combined in assay buffer and incubated for 10 min on ice. Next, 1 U of topoisomerase II was added and the reaction was allowed to proceed for 15 min at 37 °C. The reaction was quenched via the addition of loading buffer (1% sarkosyl, 0.025% bromophenol blue, and 5% glycerol) and was then analyzed by electrophoresis on a 1% agarose gel in TBE buffer for 30 min at 130 V. The gel was stained with SYBR Green I (Molecular Probes) for 30 min and was visualized under UV illumination and photographed on a Tanon Imager.

HL-7702 = assay: MTT cytotoxicity assay, normal hepatic cell line HL-7702; assay type: cell-based; details: human normal hepatic immortal cell line, drug exposure 48 h, mean ± SD (n = 3), read-out: Cytotoxic activity (IC50) HL-7702
Procedure: as §1

HeLa = assay: MTT cytotoxicity assay, HeLa; assay type: cell-based; details: drug exposure 48 h, mean ± SD (n = 3), read-out: Cytotoxic activity (IC50) HeLa
Procedure: as §1

[6] = 5 μM, untreated control 0%, etoposide-induced activation 100%
[7] = Homo sapiens, BGC-823, drug exposure 48 h
[8] = Homo sapiens, MCF7, drug exposure 48 h

Structure (SMILES) | Extent of compound-induced PARP [1, 6] [%] | Extent of compound-induced caspase 3 [1, 6] [%] | Extent of compound-induced caspase 9 [1, 6] [%] | BimEL level (pro-apoptotic protein) [1] | IC50 at 48 h [2] [µM] | IC50 (BGC-823; [7]) [µM] | Cellular depolymerization of microtubules [3] | Appearance of microtubules after treatment [3] | Effect on HeLa cell cycle (HeLa cells [4]) | Ratio of cell cycle arrest (of total cells) (HeLa cells [4]; HeLa) | Total cell cycle arrest percentage (right peak of histogram) (HeLa cells [4]; HeLa, 5.0 μM) [%] | IC50 (MCF-7; [8]) [µM] | Inhibition of microtubule polymerization compared with colchicine (tubulin) | Ratio of apoptotic Hela cells (of total cells) (HeLa cells [5]) | also measured
COc1ccc(N[C@@H]2c3cc4c(cc3[C@@H](c3cc(OC)c(OC)c(OC)c3)[C@H]3C(=O)OC[C@@H]32)OCO4)cc1Cl [Compound 18, 4β-NH-(3-chloride-4-methoxyaniline)-4-deoxy-podophyllotoxin] | 84 | 56 | 50 | significantly increased | 79 ± 2.33 | 3.52 ± 0.23 | able to cause cellular depolymerization of microtubules | greatly disrupted and disappeared | arrested at the G2/M phase | less than 10% | 94.4 | 3.54 ± 0.14 | effects higher than colchicine | less than 15% | Extent of compound-induced BimEL [1, 6]: 58%; IC50 (A549; Homo sapiens, A549, drug exposure 48 h): 3.72 ± 0.29 µM
COc1ccc(N[C@@H]2c3cc4c(cc3[C@@H](c3cc(OC)c(O)c(OC)c3)[C@H]3C(=O)OC[C@@H]32)OCO4)cc1Br [Compound 17′, 4β-NH-(3-bromide-4-methoxyaniline)-4-deoxy-4′-demethylepipodophyllotoxin] | 52 | 43 | 34 |  | 91.8 ± 1.57 | 5.63 ± 0.12 |  |  | arrested at the G2/M phase |  |  | 6.51 ± 0.37 |  |  | Inhibition of the catalytic activity of Topo II (kDNA decatenation) (topoisomerase II): completely inhibited; Extent of compound-induced ATR [1, 6]: 26%
COc1ccc(NC2c3cc4c(cc3C(c3cc(OC)c(OC)c(OC)c3)C3C(=O)OCC23)OCO4)cc1F (stereo not drawn) [Compound 19, 4β-NH-(3-fluoro-4-methoxyaniline)-4-deoxy-podophyllotoxin] |  |  |  | significantly increased |  |  | able to cause cellular depolymerization of microtubules | greatly disrupted and disappeared | arrested at the G2/M phase | less than 10% | 96.2 |  | effects higher than colchicine | less than 15% | IC50 (A549; drug exposure 48 h): 1.76 ± 0.07 µM; IC50 (HL-7702): 55.4 ± 0.64 µM; IC50 (BGC-823; drug exposure 48 h): 1.61 ± 0.11 µM; Percentage of cell cycle arrest (right peak of histogram) (HeLa cells [4]; HeLa, 5.0 μM, 12 h): 83.0%; IC50 (HeLa): 0.72 ± 0.08 µM; IC50 (MCF-7; drug exposure 48 h): 2.01 ± 0.21 µM; GI50 (tubulin; centrifugation assay, ligand 0 to 25 μM, 30 min at 37 °C, read-out: GI50, inhibition of microtubule polymerization (tubulin assembly)): < 1 µM
